The source made the active and inactive calls. The rule behind the calls is not given here.
Key:
[1] = Toxicity in BALB/c mouse xenografted with human MCF7 cells assessed as effect on liver at 5 to 20 mg/kg, […] every other day measured after 14 days by hematoxylin and eosin staining based analysis; assay type: organism-based; conditions: in vivo, 336 h, dose 5-20 mg/kg, time 14 day
Homo sapiens = organism: Homo sapiens; test: Selectivity ratio of IC50 for USP2 (unknown origin) catalytic domain to IC50 for USP8 (unknown origin) catalytic domain
MCF7 = test: Induction of apoptosis in human MCF7 cells assessed as reduction in EGFR expression level up to 5 uM incubated for 24 hrs by Western blotting analysis; assay type: functional, cell-based

SMILES: Cc1n[nH]c(C)c1Oc1c(O)cc(O)c2c(=O)cc(-c3ccc(N4CCN(c5ccccn5)CC4)cc3)oc12
- Activity [1]: Non-Toxic
- Ratio IC50 (Homo sapiens): 49
- Activity (MCF7): Active

From ChEMBL document CHEMBL5131570, “Discovery of Potent Small-Molecule USP8 Inhibitors for the Treatment of Breast Cancer through Regulating ERα Expression” (J Med Chem, 2022)
